Test results from article PMC8204636 (ACS chemical biology, 2020).

Target: Cdk2 (Homo sapiens, UniProt P24941)
Assay: p-Cl-ANS fluorescent binding assay
Conditions: for cooperativity with the allosteric ANS site: based on p-Cl-ANS fluorescent binding studies; for effect on the binding (fluorescence) of p-Cl-ANS: orthosteric ligand titrated into Cdk2 with p-Cl-ANS

| cooperativity with the allosteric ANS site | effect on the binding (fluorescence) of p-Cl-ANS | Structure (SMILES) |
| --- | --- | --- |
| only weakly cooperative, if at all | little effect | Nc1ncnc2c1ncn2[C@@H]1O[C@H](COP(=O)(O)OP(=O)(O)OP(=O)(O)O)[C@@H](O)[C@H]1O [ATP] |
| only weakly cooperative, if at all | little effect | Nc1ncnc2c1ncn2[C@@H]1O[C@H](COP(=O)(O)OP(=O)(O)NP(=O)(O)O)[C@@H](O)[C@H]1O [AMP-PNP, adenylyl-imidodiphosphate] |
